US7968558B2, “Amidine derivatives of 2-heteroaryl-quinazolines and quinolines; potent analgesics and anti-inflammatory agents” (Rottapharm S.p.A., priority 2006, dated 2011)
Structures can show the parent of a compound that is named as a salt. Where two headings read alike, the source gives them in different places.

Tests used:
[1] = tested on: mechanical hyperalgesia associated with STZ-induced diabetes; assay: STZ-induced diabetes mechanical hyperalgesia (neuropathic pain); type: in vivo, rat
Protocol: Streptozotocin (STZ)-induced diabetes in the rat has been increasingly used as a model of painful diabetic neuropathy to assess the efficacies of potential analgesic agents (C. Courteix, Pain 1993, 53, 81-8). The compounds of the invention were tested for efficacy in reducing mechanical hyperalgesia associated with STZ-induced diabetes in the rat, according to the experimental model as described by the literature. Diabetes was produced with the injection of a single dose (75 mg/Kg i.p.) of STZ. In the following four weeks after the induction of diabetes the clinical symptoms (weight, body and skin temperature, motility and hyperglycemia) progressively developed by the animals, are strictly monitored. After four weeks, the scores obtained in diabetic rats to various pain stimuli (in particular mechanical stimuli) were grater than those in normal rats, indicating hyperalgesia. The hyperalgesia induced by diabetes was evaluated using the Randall-Selitto method as above described, and quantitated using the analgesimeter. Also in this case, the difference in the mechanical pain threshold between the basal value (generally 230-250 g) and the one tolerated by the animals treated with the drug, is defined as mechanical hyperalgesia. The compounds of the invention were administered i.p. (solution, Tween 80, 10% in saline) at different doses, and mechanical hyperalgesia was measured at the reported time, as maximum percent effect (MPE) which represents the difference (%) in pain threshold between the animals treated with the drug and the controls that received only the vehicle, compared with the weight borne by naïf non-diabetic controls. A 100% protection means that the diabetic animals treated with the compound can tolerate the same stimulus (weight) as the naïf non-diabetic animals. MPE higher than 100% means that the diabetic animal treated with the compound can tolerate stimuli (weight) higher than the control non-diabetic animals (hypoalgesia).

[2] = tested on: Zymosan induced paw volume increase; assay: Zymosan-induced paw oedema; type: in vivo, rat; conditions: for ED50: Rattus norvegicus, read-out: Oedema Reduction ED50; for Oedema Reduction ED30: 2 hours after challenge
Protocol: (§1) The interplantar injection of Zymosan-induced mechanical hyperalgesia was used as a model of inflammatory pain (Meller, Neuropharmacology, 1994, 33, 1471-1478). In this model, typically a male Sprague-Dawley or Wistar rat (200-250 g) receives an interplantar injection of 3 mg/100 μl zymosan into one hind paw. A marked inflammation occurs in this hind paw. Drugs are administered orally for evaluation of efficacy, 30 min. before the inflammatory insult. The hyperalgesia induced by zymosan administration was evaluated using the Randall-Selitto method (Arch. Int. Pharmacodyn., 1957, 111, 409). The quantitation of the analgesic effect is achieved by an analgesimeter, which consist in applying to the inflamed paw an increasing weight (from 130-140 g up to 500 g). The difference in the mechanical pain threshold between the basal value (generally 230-250 g) and the one tolerated by the animals treated with the drug, determined 4 hours after the inflammatory challenge, is defined as mechanical hyperalgesia.
(§2) Mechanical hyperalgesia is expressed for the compounds of the invention as ED50, which is the dose of the administered compound able to increase the pain threshold by 50% in comparison with the group of control animals. The corresponding ED100, representing the dose able of reducing of 100% the pain threshold, can be calculated for those cases where there is a linear dose-response relationship. In vivo anti-inflammatory effect exerted by the compound of the invention can be assessed in the same Zymosan induced inflammation test described above, by measuring the volume of the oedema induced by the inflammatory agent. The oedema was evaluated as the increase in the volume of the Zymosan injected paw within a time of 0-2 hrs. The measurements of the variation of the oedema volume of the paw were recorded using hydroplethysmometer, which consists of two plastic cuvettes containing a surfactant liquid, the larger one being used for immersion of the paw, connected to the smaller one which contains a trans-ducer capable of recording small displacements of the volume used for the measure. The paw is immersed in the cuvettes up to the tibiotarsal joint. The volume of the liquid displaced is proportional to the extent of the inflammation. The efficacy of the compounds of the invention in preventing oedema formation is expressed as ED30, and is measured 2 hours after the inflammatory challenge, and represents the dose able of reducing of 30%, the Zymosan induced paw volume increase in comparison to control animals (animals treated with Zymosan but treated with only distilled water instead of the testing compound). The corresponding ED50, representing the dose able of reducing of 50% the zymosan induced paw volume increase, can be calculated for those cases where there is a linear dose-response relationship.
(§3) In both the experiments, for each test compound, at least three doses were used, with 10 animals per group. Compounds of the invention were tested at 10, 20 and 40 mg/Kg.

[3] = tested on: Zymosan-induced mechanical hyperalgesia; assay: Zymosan-induced mechanical hyperalgesia (Randall-Selitto); type: in vivo, rat; conditions: for ED50: Rattus norvegicus, read-out: Analgesia ED50; for Analgesia ED100: calculated from linear dose-response
Protocol: as §1, §2, §3

[4] = tested on: acetic acid-induced abdominal writhes; assay: Acetic acid-induced writhing test; type: in vivo, mice
Protocol: With the aim of assessing whether the compounds of the invention are able to inhibit responses to peritoneal irritation-induced visceral pain, the acetic acid-induced writhing assay was used in mice to determine the degree of anti-nociception.
The writhing test is a model of inflammatory pain that has long been used as a screening tool for evaluation of analgesic and anti-inflammatory agents (HDJ Collier, B. J. Pharmacol Chemother., 1968, 32, 295-310). The test was performed inducing nociception by an i.p. injection of acetic acid 1%, 0.1 mL/10 g of body weight. Mice were pre-treated (subcutaneously, s.c., three different doses: 3, 10, 30 mg/Kg) with the tested compounds 30 min. before acetic acid injection, while control animals received a similar volume of saline solution. A group of mice was treated with Paracetamol (200 mg/Kg, s.c.) as reference drug. The number of abdominal writhes (full extension of both hind paws) was cumulatively counted every 5 minutes over a period of 20 min. immediately after the acetic acid injection. The anti-nociceptive activity was expressed as inhibition of abdominal writhes as maximum percent effect (MPE), which represents the difference (%) in pain threshold between the animals treated with the drug and the ones that received only the vehicle.

CFA-induced hyperalgesia = assay: CFA model of chronic inflammatory pain; type: in vivo, rat
[5] = tested on: formalin-induced paw licking; assay: Formalin (licking) test; type: in vivo, mice; conditions: for ED50: Mus musculus, ip
Protocol: The formalin test is increasingly used as a model of injury-produced pain (FV. Abbott, Pain, 1995, 60, 91-102). The procedure used for the evaluation of the compounds of the invention was similar to that reported by literature (S. Hunskaar, Pain, 1987, 30, 103-104), and consisted of the injection of 20 μl of 1% solution of formalin dissolved in distilled water, in the plantar surface of the right hind paw of the mice. Immediately, the animals were placed individually in an observation chamber. The amount of time that the animal spent licking the injected paw, considered indicative of pain, was recorded during 30 min. following formalin injection. The initial nociceptive scores normally peaked 5 min after formalin injection (early phase) and 15-30 min. after formalin injection (late phase), representing both the neurogenic and inflammatory pain responses respectively.
Animals were treated i.p. with an aqueous solution of the tested compound (doses: 3, 10, 30 mg/Kg), 1 hour before the formalin injection. Control animals received only the vehicle.
In Table 8, the analgesic effect elicited in this test by a representative compound of Formula (I), is expressed as ED50 both for the early and late phase, and compared with the performance of the standard reference, paracetamol.

[6] = oral, calculated from linear dose-response
[7] = oral, 30 min before zymosan, 4 hours after challenge

In the case of `CN(C)CCC=C1c2ccccc2CCc2ccccc21` [Amitriptyline, reference compound], the “MPE 0.5 hrs.” value ([1]; 1 mg/Kg i.p.) is reported as 72%, the “MPE 1.5 hrs.” value ([1]; 1 mg/Kg i.p.) is reported as 89% and the “MPE 0.5 hrs.” value ([1]; 3 mg/Kg i.p.) is reported as 44%. The “MPE 1.5 hrs.” value ([1]; 3 mg/Kg i.p.) was 40%, the “MPE 3 hrs.” value ([1]; 3 mg/Kg i.p.) was 5% and the “MPE 0.5 hrs.” value ([1]; 10 mg/Kg i.p.) was 68%. The “MPE 1.5 hrs.” value ([1]; 10 mg/Kg i.p.) was 77%, the “MPE 0.5 hrs.” value ([1]; 30 mg/Kg i.p.) was 65% and the “MPE 1.5 hrs.” value ([1]; 30 mg/Kg i.p.) was 69%. For the same compound, the “MPE 3 hrs.” value ([1]; 30 mg/Kg i.p.) was 23%.
`Cc1ccc(-c2cc(C(F)(F)F)nn2-c2ccc(S(N)(=O)=O)cc2)cc1` [Celecoxib, reference compound] was tested, and the ED50 [2, 6] was 644 mg/kg, the “Oedema Reduction ED30” value ([2]; oral) was 13.8 mg/kg and the ED50 [3, 7] was 9 mg/kg. For the same compound, the “Analgesia ED100” value ([3]; oral) was 1172 mg/kg.
For `CC(=N)Nc1ccc2nc(-c3ccc4c(c3)CCO4)ncc2c1` [Example 4, N-[2-(2,3-dihydro-benzofuran-5-yl)quinazolin-6-yl]acetamidine dihydrochloride hemihydrate], the ED50 ([2]; po) was 170 mg/kg, the “Oedema Reduction ED30” value ([2]; oral) was 25 mg/kg and the ED50 [3] was 5.8 mg/kg. The “Analgesia ED100” value ([3]; oral) was 17 mg/kg, the “MPE 0.5 hrs.” value ([1]; 3 mg/Kg i.p.) was 56% and the “MPE 1.5 hrs.” value ([1]; 3 mg/Kg i.p.) was 15%. The “MPE 0.5 hrs.” value ([1]; 10 mg/Kg i.p.) was 78%, the “MPE 1.5 hrs.” value ([1]; 10 mg/Kg i.p.) was 24% and the “MPE 0.5 hrs.” value ([1]; 30 mg/Kg i.p.) was 163%. For the same compound, the “MPE 1.5 hrs.” value ([1]; 30 mg/Kg i.p.) was 74%, the “MPE (%)” value ([4]; 3 mg/Kg s.c., 30 min. before acetic acid) was 18% and the “MPE (%)” value ([4]; 10 mg/Kg s.c., 30 min. before acetic acid) was 41%. The “MPE (%)” value ([4]; 30 mg/Kg s.c., 30 min. before acetic acid) was 36%, the ED50 ([4]; Mus musculus, sc) was 59.6 mg/kg and the “MPE 1.5 hrs.” value (CFA-induced hyperalgesia; 3 mg/Kg i.p.) was 44%. The “MPE 0.5 hrs.” value (CFA-induced hyperalgesia; 10 mg/Kg i.p.) was 47%, the “MPE 1.5 hrs.” value (CFA-induced hyperalgesia; 10 mg/Kg i.p.) was 27% and the “MPE 3 hrs.” value (CFA-induced hyperalgesia; 10 mg/Kg i.p.) was 25%. For the same compound, the “MPE 6 hrs.” value (CFA-induced hyperalgesia; 10 mg/Kg i.p.) was 66%, the “MPE 24 hrs.” value (CFA-induced hyperalgesia; 10 mg/Kg i.p.) was 57% and the “MPE 0.5 hrs.” value (CFA-induced hyperalgesia; 30 mg/Kg i.p.) was 243%. For the same compound, the “MPE 1.5 hrs.” value (CFA-induced hyperalgesia; 30 mg/Kg i.p.) was 270%, the “MPE 3 hrs.” value (CFA-induced hyperalgesia; 30 mg/Kg i.p.) was 170% and the “MPE 6 hrs.” value (CFA-induced hyperalgesia; 30 mg/Kg i.p.) was 103%. For the same compound, the “MPE 24 hrs.” value (CFA-induced hyperalgesia; 30 mg/Kg i.p.) was 76%.
In the case of `COc1ccc2c(c1)c(CC(=O)O)c(C)n2C(=O)c1ccc(Cl)cc1` [Indomethacine], the “Analgesic effect ED50 (mg/Kg) Late phase” value ([5]; i.p., 1 hour before formalin, late phase) is reported as 10 mg/kg.
Work on `CN1CC[C@]23c4c5ccc(O)c4O[C@H]2[C@@H](O)C=C[C@H]3[C@H]1C5` [Morphine] yielded an ED50 ([5]; read-out: Analgesic effect ED50 (mg/Kg) Early phase) of 4 mg/kg and an ED50 ([5]; read-out: Analgesic effect ED50 (mg/Kg) Late phase) of 4 mg/kg.
For `CS(=O)(=O)Nc1ccc([N+](=O)[O-])cc1Oc1ccccc1` [Nimesulide, reference compound], the ED50 [2, 6] was 33.4 mg/kg, the “Oedema Reduction ED30” value ([2]; oral) was 0.5 mg/kg and the ED50 [3, 7] was 7.4 mg/kg. The “Analgesia ED100” value ([3]; oral) was 161 mg/kg.
With `CC(=O)Nc1ccc(O)cc1` [Paracetamol] the “MPE (%)” value ([4]; 200 mg/Kg s.c.) was 61%, the ED50 ([5]; 1 hour before formalin, early phase, read-out: Analgesic effect ED50 (mg/Kg) Early phase) was 230 mg/kg and the ED50 ([5]; 1 hour before formalin, late phase, read-out: Analgesic effect ED50 (mg/Kg) Late phase) was 107 mg/kg.
In the case of `CN1C(C(=O)Nc2ccccn2)=C(O)c2ccccc2S1(=O)=O` [Piroxicam, reference compound], the “MPE 0.5 hrs.” value (CFA-induced hyperalgesia; 30 mg/Kg i.p.) is reported as 102%, the “MPE 1.5 hrs.” value (CFA-induced hyperalgesia; 30 mg/Kg i.p.) is reported as 111% and the “MPE 3 hrs.” value (CFA-induced hyperalgesia; 30 mg/Kg i.p.) is reported as 54%. For the same compound, the “MPE 6 hrs.” value (CFA-induced hyperalgesia; 30 mg/Kg i.p.) was 24% and the “MPE 24 hrs.” value (CFA-induced hyperalgesia; 30 mg/Kg i.p.) was 38%.
`COc1cccc(C2(O)CCCCC2CN(C)C)c1` (centres unmarked) [Tramadol, reference compound] was tested, and the ED50 [3] was 25.7 mg/kg, the “Analgesia ED100” value ([3]; oral) was 405 mg/kg and the “MPE 0.5 hrs.” value ([1]; 3 mg/Kg i.p.) was 26%. For the same compound, the “MPE 1.5 hrs.” value ([1]; 3 mg/Kg i.p.) was 53%, the “MPE 3 hrs.” value ([1]; 3 mg/Kg i.p.) was 7% and the “MPE 0.5 hrs.” value ([1]; 10 mg/Kg i.p.) was 58%. For the same compound, the “MPE 1.5 hrs.” value ([1]; 10 mg/Kg i.p.) was 48%, the “MPE 3 hrs.” value ([1]; 10 mg/Kg i.p.) was 27% and the “MPE 0.5 hrs.” value ([1]; 30 mg/Kg i.p.) was 54%. The “MPE 1.5 hrs.” value ([1]; 30 mg/Kg i.p.) was 64%, the “MPE 3 hrs.” value ([1]; 30 mg/Kg i.p.) was 23% and the “MPE 0.5 hrs.” value ([1]; 50 mg/Kg i.p.) was 81%. For the same compound, the “MPE 1.5 hrs.” value ([1]; 50 mg/Kg i.p.) was 60% and the “MPE 3 hrs.” value ([1]; 50 mg/Kg i.p.) was 43%.
